By IC50 is commonly meant the concentration at which inhibition is half-maximal. Broadly, the Ki is a dissociation constant, usually derived from enzyme kinetics or from competition with a known ligand. A low value points to a stronger hold on the target.

Like-named read-outs stand apart in the source and are kept apart here.

We go through 4 compounds from PMC4166032 (Bioconjugate Chemistry, 2014).

The test system of one data set is PXR. The settings on record: cited from earlier work; for IC50: read-out: reported IC50, BODIPY FL vinblastine (4) as fluorescent probe.
For data set [1], the target named is T1, GST-hPXR-LBD (Homo sapiens, UniProt O75469).
T1 sequence (O75469 146-433 limits assumed): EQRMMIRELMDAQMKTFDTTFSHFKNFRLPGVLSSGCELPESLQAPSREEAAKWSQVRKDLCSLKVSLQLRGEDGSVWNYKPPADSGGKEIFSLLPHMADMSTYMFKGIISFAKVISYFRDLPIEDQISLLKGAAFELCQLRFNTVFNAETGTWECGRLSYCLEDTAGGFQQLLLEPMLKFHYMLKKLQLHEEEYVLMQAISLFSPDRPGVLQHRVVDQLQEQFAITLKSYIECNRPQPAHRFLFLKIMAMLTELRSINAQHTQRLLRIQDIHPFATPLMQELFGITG
Kind of data set: biochemical. The settings on record: 30 min.

Data set [2] addresses T1, GST-hPXR-LBD. Kind of data set: biochemical.
Data set [3] concerns the target T1, GST-hPXR-LBD.

In the case of `Clc1ccccc1C(c1ccccc1)(c1ccccc1)n1ccnc1` [clotrimazole (6), clotrimazole], the IC50 in the data set on PXR was 1.94 µM.

Turning to `C[C@@H]1C(=O)O[C@H]2C[C@@]34[C@H]5C[C@@H](C(C)(C)C)[C@]36[C@@H](OC(=O)[C@@H]6O)O[C@@]4(C(=O)O5)[C@]21O` [ginkgolide A (8), ginkgolide A], the IC50 against GST-hPXR-LBD [1] (IC50 with 50 nM 20, 50 nM BODIPY FL vindoline (20) probe) was 20.7 µM; against GST-hPXR-LBD [1] (IC50 with 100 nM 20, 100 nM BODIPY FL vindoline (20) probe, laboratory assay buffer, 1.1% DMSO), 37.7 µM; in the data set with PXR, 13.7 µM.

In the case of `CC[C@]1(O)C[C@@H]2CN(CCc3c([nH]c4ccccc34)[C@@](C(=O)OC)(c3cc4c(cc3OC)N(C)[C@H]3[C@@](O)(C(=O)OC)[C@H](OC(C)=O)[C@]5(CC)C=CCN6CC[C@]43[C@@H]65)C2)C1` [vinblastine (10), vinblastine], in the data set with PXR, the PXR-specific binding affinity entry is “low PXR-specific binding affinity”.

On GST-hPXR-LBD [2], `CCC12C=CCN3CC[C@@]4(c5ccc(OC)cc5N(C)[C@H]4[C@@](O)(C(=O)OC)[C@@H]1OC(C)=O)[C@@H]32` (some centres unmarked) [vindoline (14), vindoline] showed an IC50 of 12.9 µM and a Ki of 11.2 µM. At GST-hPXR-LBD [3], the “inhibitory activity at 100 μM” value turned out to be 93%.
